What all share (test): biochemical
Holding throughout (set-up): LanthaScreen kinase activity assay (Thermo Fisher), dose-dependent inhibition by C-604
Holding throughout (details): read-out: IC50 (C-604)
A general note: TR-FRET usually uses a lanthanide donor and a delayed reading to cut background.

One assay addresses T1, PRKD2 (Homo sapiens, UniProt Q9BZL6).
T1 sequence (Q9BZL6 1-878): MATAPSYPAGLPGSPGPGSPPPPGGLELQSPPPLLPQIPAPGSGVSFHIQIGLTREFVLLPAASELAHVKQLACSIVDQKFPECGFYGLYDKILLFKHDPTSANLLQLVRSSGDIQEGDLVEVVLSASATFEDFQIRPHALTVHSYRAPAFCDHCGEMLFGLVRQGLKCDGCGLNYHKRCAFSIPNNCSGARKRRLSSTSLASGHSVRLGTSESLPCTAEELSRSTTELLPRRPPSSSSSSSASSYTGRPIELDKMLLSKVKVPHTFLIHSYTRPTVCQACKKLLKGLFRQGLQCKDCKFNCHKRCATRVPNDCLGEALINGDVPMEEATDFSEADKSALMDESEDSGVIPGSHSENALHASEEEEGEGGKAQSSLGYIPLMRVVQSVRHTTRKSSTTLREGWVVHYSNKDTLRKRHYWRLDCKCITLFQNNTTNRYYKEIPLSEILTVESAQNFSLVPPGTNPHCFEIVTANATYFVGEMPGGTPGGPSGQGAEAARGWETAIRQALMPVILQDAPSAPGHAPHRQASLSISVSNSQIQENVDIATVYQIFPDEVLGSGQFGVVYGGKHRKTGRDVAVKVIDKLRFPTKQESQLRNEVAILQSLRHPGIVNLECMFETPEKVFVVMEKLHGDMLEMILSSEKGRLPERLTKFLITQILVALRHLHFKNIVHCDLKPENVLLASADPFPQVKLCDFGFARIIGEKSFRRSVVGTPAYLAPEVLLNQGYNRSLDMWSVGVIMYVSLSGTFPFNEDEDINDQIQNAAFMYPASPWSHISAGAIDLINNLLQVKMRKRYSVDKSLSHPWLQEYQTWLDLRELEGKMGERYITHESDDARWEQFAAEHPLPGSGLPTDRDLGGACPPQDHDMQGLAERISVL
On the procedure:
(§1) To identify potential C-604 off-targets, we utilised a commercially available off-target screening service (Thermo Fisher Scientific) to assess the impact of C-604 on the in vitro activity of 100 human kinases (Supplementary Fig. 8a). Out of 100 tested targets, C-604 (1 µM) inhibited GWL (inhibition 95%) and an additional 10 kinases (inhibition ≥ 80%). […] The in vitro off-target effects of compound C-604 were determined by assessing its inhibitory potential in a panel of 100 human kinases using the LanthaScreen Kinase Activity Assay (Thermo Fisher Scientific).

The target in the next assay is MAP3K9 (Homo sapiens, UniProt P80192). On the procedure:
as §1

For a further assay, the target named is T2, ULK2 (Homo sapiens, UniProt Q8IYT8).
T2 sequence (Q8IYT8 1-1036): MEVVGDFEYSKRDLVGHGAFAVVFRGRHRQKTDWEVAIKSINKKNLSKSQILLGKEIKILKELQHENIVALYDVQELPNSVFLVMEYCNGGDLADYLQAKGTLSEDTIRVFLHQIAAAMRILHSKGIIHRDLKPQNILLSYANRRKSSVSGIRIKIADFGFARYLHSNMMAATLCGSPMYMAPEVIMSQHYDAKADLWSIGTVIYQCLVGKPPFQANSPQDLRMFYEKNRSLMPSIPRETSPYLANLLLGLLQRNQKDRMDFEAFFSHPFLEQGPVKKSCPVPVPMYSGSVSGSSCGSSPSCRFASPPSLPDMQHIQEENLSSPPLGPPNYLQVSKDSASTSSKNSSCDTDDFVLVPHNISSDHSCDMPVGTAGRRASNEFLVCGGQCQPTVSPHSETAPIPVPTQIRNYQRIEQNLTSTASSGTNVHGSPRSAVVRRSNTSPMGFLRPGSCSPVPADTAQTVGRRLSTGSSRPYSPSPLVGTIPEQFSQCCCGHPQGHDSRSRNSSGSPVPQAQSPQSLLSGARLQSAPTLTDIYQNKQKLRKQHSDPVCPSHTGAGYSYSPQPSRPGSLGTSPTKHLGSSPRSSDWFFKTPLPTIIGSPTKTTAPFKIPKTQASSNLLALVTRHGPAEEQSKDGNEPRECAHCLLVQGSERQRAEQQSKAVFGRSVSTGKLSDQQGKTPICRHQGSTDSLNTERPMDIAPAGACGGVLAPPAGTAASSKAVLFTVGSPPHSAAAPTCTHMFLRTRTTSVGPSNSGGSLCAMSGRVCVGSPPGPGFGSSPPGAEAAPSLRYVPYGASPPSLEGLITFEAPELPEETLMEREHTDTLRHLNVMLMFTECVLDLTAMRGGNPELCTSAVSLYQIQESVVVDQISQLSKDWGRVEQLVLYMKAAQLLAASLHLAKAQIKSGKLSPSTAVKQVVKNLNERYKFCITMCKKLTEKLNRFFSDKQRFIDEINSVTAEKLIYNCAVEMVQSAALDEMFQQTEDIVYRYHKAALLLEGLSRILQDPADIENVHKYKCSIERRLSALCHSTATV
On the procedure: as §1

The target in the next assay is HIPK2 (Homo sapiens, UniProt Q9H2X6). As for the experimental part:
as §1

The target of the next assay is MARK3 (Homo sapiens, UniProt P27448). On the procedure:
as §1

By IC50 is commonly meant the concentration needed to halve the response being measured.

Each structure is given as a SMILES string.

Sequence of HIPK2 (Q9H2X6 whole entry): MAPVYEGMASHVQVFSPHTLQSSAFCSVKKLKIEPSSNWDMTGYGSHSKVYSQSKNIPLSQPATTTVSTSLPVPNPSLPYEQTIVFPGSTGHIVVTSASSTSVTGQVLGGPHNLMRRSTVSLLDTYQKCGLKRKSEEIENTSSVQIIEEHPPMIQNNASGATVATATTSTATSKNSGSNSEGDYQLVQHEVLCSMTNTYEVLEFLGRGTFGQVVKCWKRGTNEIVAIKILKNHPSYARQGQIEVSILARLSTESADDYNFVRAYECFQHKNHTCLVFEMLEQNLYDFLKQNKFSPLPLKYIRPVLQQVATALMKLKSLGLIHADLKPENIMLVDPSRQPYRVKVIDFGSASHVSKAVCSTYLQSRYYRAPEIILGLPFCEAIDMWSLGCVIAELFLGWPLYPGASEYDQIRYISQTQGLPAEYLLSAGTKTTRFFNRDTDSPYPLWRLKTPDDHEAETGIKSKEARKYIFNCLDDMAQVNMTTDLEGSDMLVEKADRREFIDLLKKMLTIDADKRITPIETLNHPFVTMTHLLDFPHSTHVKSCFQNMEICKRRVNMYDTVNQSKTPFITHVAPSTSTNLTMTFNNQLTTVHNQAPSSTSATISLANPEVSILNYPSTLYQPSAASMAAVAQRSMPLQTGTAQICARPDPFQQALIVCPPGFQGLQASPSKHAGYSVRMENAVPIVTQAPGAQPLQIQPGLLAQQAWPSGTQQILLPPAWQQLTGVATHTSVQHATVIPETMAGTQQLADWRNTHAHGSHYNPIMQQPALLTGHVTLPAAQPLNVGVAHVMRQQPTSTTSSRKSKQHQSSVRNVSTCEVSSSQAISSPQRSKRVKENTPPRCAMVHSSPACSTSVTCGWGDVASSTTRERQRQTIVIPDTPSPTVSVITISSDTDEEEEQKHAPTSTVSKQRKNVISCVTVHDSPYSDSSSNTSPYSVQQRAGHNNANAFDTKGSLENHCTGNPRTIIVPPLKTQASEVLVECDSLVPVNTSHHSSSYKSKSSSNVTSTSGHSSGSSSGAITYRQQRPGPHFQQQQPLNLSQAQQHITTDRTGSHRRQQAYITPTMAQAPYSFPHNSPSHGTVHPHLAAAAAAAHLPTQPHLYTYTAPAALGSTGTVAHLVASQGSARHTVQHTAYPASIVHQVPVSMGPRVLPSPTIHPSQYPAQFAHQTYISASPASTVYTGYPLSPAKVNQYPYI
Sequence of MARK3 (P27448 whole entry): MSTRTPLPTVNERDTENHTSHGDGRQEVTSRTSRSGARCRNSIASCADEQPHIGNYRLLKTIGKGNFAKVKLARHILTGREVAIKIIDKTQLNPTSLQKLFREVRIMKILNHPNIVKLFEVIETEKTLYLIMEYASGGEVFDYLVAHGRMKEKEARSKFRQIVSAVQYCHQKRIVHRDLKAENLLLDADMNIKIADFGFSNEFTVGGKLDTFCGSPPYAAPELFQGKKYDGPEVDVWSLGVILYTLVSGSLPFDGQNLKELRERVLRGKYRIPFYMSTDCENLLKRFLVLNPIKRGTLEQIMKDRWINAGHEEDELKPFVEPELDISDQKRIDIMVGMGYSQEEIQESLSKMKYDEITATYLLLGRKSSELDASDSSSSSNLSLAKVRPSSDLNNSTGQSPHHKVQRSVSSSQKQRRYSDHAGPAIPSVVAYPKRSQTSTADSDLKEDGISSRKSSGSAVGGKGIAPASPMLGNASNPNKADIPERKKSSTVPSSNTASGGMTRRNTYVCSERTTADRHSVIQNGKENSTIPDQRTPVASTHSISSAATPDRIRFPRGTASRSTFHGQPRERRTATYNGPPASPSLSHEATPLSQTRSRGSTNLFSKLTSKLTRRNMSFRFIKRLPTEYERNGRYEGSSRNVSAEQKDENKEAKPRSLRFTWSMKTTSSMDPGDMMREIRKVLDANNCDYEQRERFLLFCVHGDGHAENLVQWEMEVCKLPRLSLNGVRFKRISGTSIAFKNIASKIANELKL
Sequence of MAP3K9 (P80192 whole entry): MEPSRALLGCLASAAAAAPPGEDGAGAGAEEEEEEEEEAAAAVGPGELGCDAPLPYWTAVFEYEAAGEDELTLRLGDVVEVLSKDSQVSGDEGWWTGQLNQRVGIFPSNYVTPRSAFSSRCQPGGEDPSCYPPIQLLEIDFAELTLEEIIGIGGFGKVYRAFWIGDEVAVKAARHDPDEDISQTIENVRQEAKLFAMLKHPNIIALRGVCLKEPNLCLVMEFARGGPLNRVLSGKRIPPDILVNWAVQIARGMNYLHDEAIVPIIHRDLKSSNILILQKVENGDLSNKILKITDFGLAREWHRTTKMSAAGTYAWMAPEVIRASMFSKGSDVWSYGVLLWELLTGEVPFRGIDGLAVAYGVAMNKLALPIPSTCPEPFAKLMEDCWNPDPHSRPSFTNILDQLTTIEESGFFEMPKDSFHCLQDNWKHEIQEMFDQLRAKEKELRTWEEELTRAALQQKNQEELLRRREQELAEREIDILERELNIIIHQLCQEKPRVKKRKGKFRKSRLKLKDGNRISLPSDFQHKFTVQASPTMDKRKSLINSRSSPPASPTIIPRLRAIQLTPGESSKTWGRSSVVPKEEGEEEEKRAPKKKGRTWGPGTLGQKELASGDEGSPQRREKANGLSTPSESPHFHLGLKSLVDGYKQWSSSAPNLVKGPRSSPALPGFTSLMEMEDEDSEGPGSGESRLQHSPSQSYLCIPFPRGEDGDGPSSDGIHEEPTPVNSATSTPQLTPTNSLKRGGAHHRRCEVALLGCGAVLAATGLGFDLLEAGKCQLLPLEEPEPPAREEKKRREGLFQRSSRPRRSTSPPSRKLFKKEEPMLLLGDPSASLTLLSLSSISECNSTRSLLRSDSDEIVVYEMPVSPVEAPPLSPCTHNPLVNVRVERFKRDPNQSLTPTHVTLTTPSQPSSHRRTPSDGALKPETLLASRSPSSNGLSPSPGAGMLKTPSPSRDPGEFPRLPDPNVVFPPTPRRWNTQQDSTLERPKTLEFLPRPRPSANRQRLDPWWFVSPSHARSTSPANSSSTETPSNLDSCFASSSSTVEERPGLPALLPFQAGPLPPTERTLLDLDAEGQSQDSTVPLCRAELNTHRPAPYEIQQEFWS

As for `CNC(=O)c1c[nH]c2ncc(-c3ccc(OCCN4CCC(c5ccccc5)C4)cc3)nc12` (racemic) [compound 21, C-604], the IC50 at PRKD2 amounted to 373 nM; on MAP3K9 it was 29.3 nM; on ULK2 it was 21.6 nM; on HIPK2, 43 nM; at MARK3, 480 nM.

For the origin of these results see article PMC12391391, “The balance between B55α and Greatwall expression levels predicts sensitivity to Greatwall inhibition in cancer cells” (Nature Communications, 2025).
